Numbered stars: 1 amine (or outer) side, 2 acyl side, 3 side chain; on linkers, the order of the positions; unused ones are H or OH. Bridge positions count the residues as written; N and C are the ends. Square brackets hold non-standard residues; d marks the D form. Peptide text beside a SMILES is read from it. Bip = N[C@@H](Cc1ccc(-c2ccccc2)cc1)C(=O)O; Phe(4-NH2) = Nc1ccc(C[C@H](N)C(=O)O)cc1; d(hPhe) = N[C@H](CCc1ccccc1)C(=O)O; Suc = O=C(CCC(=O)[*:2])[*:1]
Legend:
[1] = target: T1, TNFα / TNFα receptor (TNFα R1/Fc) (Homo sapiens, UniProt P01375); assay: Inhibition of binding of TNFα to the TNFα receptor (plate ELISA competition); conditions: Table 2; read-out: Activity (IC50, inhibition of TNFα binding to TNFα R1/Fc)
T1 construct: purchased R&D Systems
T1 sequence (P01375 77-233 limits assumed, species assumed): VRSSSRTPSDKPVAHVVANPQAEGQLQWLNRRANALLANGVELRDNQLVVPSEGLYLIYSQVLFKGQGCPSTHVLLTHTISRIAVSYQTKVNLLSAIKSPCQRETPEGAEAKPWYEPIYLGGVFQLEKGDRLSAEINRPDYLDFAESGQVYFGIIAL
Procedure, shortened: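 Compound dilutions were preincubated 30 min at RT with 8.33 nM TNFα R1/Fc in PBST with 2% DMSO, then added to wells coated with 15 nM TNFα for 30 min. Bound receptor was detected with HRP anti-human Fc and TMB, read as A450.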

[2] = system: TNF-α (degradation of IkB in HeLa cells or A431 cells); assay: Human cell-based assay: inhibition of TNF-α induced degradation of IkB; conditions: HeLa or A431 cells
rat paw edema model = assay: Rat paw edema model (carrageenan), anti-inflammatory activity; format: in vivo, Sprague-Dawley (SD) rats; conditions: Table 10; 3.0 mg/kg PO; 2 h post-carrageenan

- IC50 [1]: < 10 µM
Structure (SMILES): O=C1CCC(=O)N[C@H](CCc2ccccc2)C(=O)N[C@@H](Cc2ccc(-c3ccccc3)cc2)C(=O)N[C@H](Cc2ccccc2)C(=O)N[C@H](C(=O)N[C@@H](Cc2ccccc2)C(=O)O)Cc2ccc(cc2)N1 [Compound 202] ([d(hPhe)][Bip][dF][Phe(4-NH2)]F-OH; linker N-4 via Suc)
- inhibition at 5 µM ([2]; 5 μM compound, read-out: Inhibition at Various Compound Concentrations, 5 μM): 10 to 50%
- inhibition at 10 µM ([2]; 10 μM compound, read-out: Inhibition at Various Compound Concentrations, 10 μM): 50 to 80%
- Change in Paw Volume (rat paw edema model): 1.25 ± 0.08 mL

Reference: US8338565B2, “Macrocyclic compounds for inhibition of tumor necrosis factor alpha” (Ensemble Therapeutics Corporation, priority 2008, dated 2012)
